For the test, the system named is splenic B cells. In words: Proliferation of B cells in vitro (anti-CD40 and anti-IgM stimulated). Format: cell-based, mouse. How it is done: Adult wild type mice (C57B16) were sacrificed and spleens were rapidly removed. After dissociation into single cell suspension and red blood cell lysis with NH4Cl, splenocytes were isolated by centrifugation over a Ficoll gradient. Subsequently, B lymphocytes were purified by one of two methods, complement mediated lysis or CD43 negative selection. For complement lysis, cells were incubated with anti-Thy 1 antibody (J1J), anti-L3T4 (GK 1.5), anti-Ly2 (TIB105, ATCC) and rabbit complement (Sigma) for two hours at 37°. CD43 negative selection was carried out using anti-CD43 (Serotec) and Miltenyi microbeads according to the manufacturer's instructions. Cells were cultured in RPMI 1640, 10% fetal calf serum for three days in the presence of anti-CD40 (mAb 1C10, generous gift of Hsiou-Chi Liou, Weill Medical College of Cornell University) and anti-IgM Fab′2 fragments (Jackson Immunoresearch). FGF1 (100 ng/ml) and Heparin (10 ug/ml) were added, and the number of cells was determined in triplicate compared to Heparin alone using a Coulter Counter (Coulter) or trypan blue exclusion with the same results. […]
FGF signaling inhibits splenic B cell proliferation. […] The values represent the percent decrease in total cell number observed with addition of 100 ng/ml FGF1 (determined in triplicate) as compared to heparin (10 ug/ml) alone. x=mean+/− s.e.m. […]

On to “FGF1: fibroblast growth factor ligand added exogenously to B cells; stimulates the widest range of FGF receptors”, for which the “% Decrease in total cell number, mean +/- s.e.m.” value (mean of 6 experiments, 100 ng/ml FGF1 plus heparin vs heparin alone, 3 days, one sample t test p<0.01) is 19.7 +/− 2.8%. Also, the B cell number entry (purified spleen B cells with CD40 and BCR signaling activated, incubated in the presence of FGF-1) is reported as “inhibited”.

These data come from patent publication US9884116B2, “FGF modulation of in vivo antibody production and humoral immunity” (priority 2010, dated 2018).
